Data set [1] concerns the target Glucocorticoid receptor (Homo sapiens) (UniProt P04150). The experiment in a line: Glucocorticoid Eurofins-Panlabs radioligand binding assay. The note with it: Compound concentration 10.0 uM.
For data set [2], the target named is Glutamate receptor ionotropic, kainate (Rattus norvegicus) (UniProt P22756+Q01812+P42260+P42264+Q63273). Description: Inhibition of Glutamate, Kainate at 10 µM in the Eurofins-Panlabs radioligand binding assay (Eurofins_assay_232700). The conditions noted are these: Compound concentration 10.0 uM.
Data set [3] deals with Prostaglandin G/H synthase 2 (Homo sapiens) (UniProt P35354). Description: Inhibition of Cyclooxygenase COX-2 at compound concentration of 10.0 uM in the Eurofins-Panlabs enzyme assay (Eurofins_assay_118010). On the set-up: substrate with concentration 0.3 uM Arachidonic acid, incubation time 15 min, incubation temperature 37 C. The note with it: Compound concentration 10.0 uM.

For data set [4], the target named is Phosphodiesterase 3 (Homo sapiens) (UniProt Q14432+Q13370). Description: Inhibition of Phosphodiesterase PDE3 at compound concentration of 10.0 uM in the Eurofins-Panlabs enzyme assay (Eurofins_assay_152000). The note with it: Compound concentration 10.0 uM. On the set-up: substrate with concentration 1.01 uM [3H] cAMP + cAMP, incubation time 20 min, incubation temperature 25 C. Format: protein assay.

The target in data set [5] is Cholecystokinin receptor type A (Homo sapiens) (UniProt P32238). The experiment in a line: Inhibition of Cholecystokinin CCK1 (CCKA) at 10 µM in the Eurofins-Panlabs radioligand binding assay (Eurofins_assay_218020). The conditions noted are these: Compound concentration 10.0 uM.
The target in data set [6] is Melanocortin receptor 4 (Homo sapiens) (UniProt P32245). Description: Inhibition of Melanocortin MC4 at 10 µM in the Eurofins-Panlabs radioligand binding assay (Eurofins_assay_251350). On the set-up: ligand concentration 0.02 nM. The note with it: Compound concentration 10.0 uM.
The target of data set [7] is 5-hydroxytryptamine receptor 3A (Homo sapiens) (UniProt P46098). The experiment in a line: Inhibition of Serotonin (5-Hydroxytryptamine) 5-HT3 at 10 µM in the Eurofins-Panlabs radioligand binding assay (Eurofins_assay_271910). Set-up: ligand concentration 0.69 nM. The note with it: Compound concentration 10.0 uM.
Chain of 5-hydroxytryptamine receptor 3A (Homo sapiens) (P46098 whole entry): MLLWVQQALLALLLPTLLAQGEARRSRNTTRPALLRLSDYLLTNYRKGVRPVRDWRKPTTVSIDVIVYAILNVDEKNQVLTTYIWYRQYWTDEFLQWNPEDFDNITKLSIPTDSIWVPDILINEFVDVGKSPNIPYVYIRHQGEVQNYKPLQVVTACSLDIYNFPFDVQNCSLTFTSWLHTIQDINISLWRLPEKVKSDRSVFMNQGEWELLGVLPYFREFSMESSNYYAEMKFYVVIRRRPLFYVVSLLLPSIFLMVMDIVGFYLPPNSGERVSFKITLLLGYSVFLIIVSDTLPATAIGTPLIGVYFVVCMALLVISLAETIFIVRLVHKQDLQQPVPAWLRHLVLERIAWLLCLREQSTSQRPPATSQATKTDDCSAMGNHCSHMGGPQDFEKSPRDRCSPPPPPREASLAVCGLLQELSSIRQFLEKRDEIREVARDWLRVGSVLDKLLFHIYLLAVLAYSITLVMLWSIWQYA
For data set [8], the target named is 5-hydroxytryptamine receptor 6 (Homo sapiens) (UniProt P50406). Description: Inhibition of Serotonin (5-Hydroxytryptamine) 5-HT6 at 10 µM in the Eurofins-Panlabs radioligand binding assay (Eurofins_assay_272200). The conditions noted are these: Compound concentration 10.0 uM.
Chain of 5-hydroxytryptamine receptor 6 (Homo sapiens) (P50406 whole entry): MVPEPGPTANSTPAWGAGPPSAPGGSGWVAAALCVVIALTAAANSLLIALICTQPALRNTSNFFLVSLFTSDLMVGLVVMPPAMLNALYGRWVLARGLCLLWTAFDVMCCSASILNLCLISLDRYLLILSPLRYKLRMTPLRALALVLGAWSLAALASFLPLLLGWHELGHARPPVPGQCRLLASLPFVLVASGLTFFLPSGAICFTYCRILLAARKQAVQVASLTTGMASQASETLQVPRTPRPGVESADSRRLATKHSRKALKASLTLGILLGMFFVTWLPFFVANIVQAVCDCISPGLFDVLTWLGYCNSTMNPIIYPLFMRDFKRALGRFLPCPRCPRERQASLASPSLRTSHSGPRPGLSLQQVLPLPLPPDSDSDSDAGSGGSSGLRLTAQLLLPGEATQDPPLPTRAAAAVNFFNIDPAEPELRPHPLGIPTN
In data set [9] the target is Histamine H3 receptor (Homo sapiens) (UniProt Q9Y5N1). The experiment in a line: Histamine H3 Eurofins-Panlabs radioligand binding assay. The conditions noted are these: Compound concentration 10.0 uM.
Data set [10] deals with Monoamine oxidase B (MAO-B) (Homo sapiens, UniProt P27338). Description: Inhibition of Monoamine Oxidase MAO-B at compound concentration of 10.0 uM in the Eurofins-Panlabs enzyme assay (Eurofins_assay_140120). The conditions noted are these: recombinant human MAO-B expressed in insect Hi5 cells, probe kynuramine, compound concentration 10 uM. On the set-up: substrate with concentration 50 uM Kynuramine, incubation time 60 min, incubation temperature 37 C.
Chain of Monoamine oxidase B (MAO-B) (P27338 whole entry): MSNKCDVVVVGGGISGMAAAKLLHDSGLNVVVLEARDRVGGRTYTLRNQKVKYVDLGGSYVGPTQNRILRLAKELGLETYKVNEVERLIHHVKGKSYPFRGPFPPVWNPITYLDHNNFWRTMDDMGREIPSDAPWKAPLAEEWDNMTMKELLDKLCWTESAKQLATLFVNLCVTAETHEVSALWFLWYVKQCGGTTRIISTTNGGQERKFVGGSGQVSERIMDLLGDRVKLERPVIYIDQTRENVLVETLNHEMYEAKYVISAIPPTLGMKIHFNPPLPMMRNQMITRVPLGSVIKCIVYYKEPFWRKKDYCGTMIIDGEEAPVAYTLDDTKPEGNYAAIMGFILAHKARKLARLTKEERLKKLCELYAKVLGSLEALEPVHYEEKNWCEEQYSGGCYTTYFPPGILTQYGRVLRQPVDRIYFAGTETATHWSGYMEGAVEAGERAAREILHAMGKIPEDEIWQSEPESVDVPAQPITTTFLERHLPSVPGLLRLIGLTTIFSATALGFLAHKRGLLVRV

Data set [11] deals with Caspase-3 (Homo sapiens) (UniProt P42574). The experiment in a line: Peptidase, CASP3 (Caspase 3) Eurofins-Panlabs enzyme assay. The conditions noted are these: Compound concentration 10.0 uM.
Chain of Caspase-3 (Homo sapiens) (P42574 29-175 limits assumed): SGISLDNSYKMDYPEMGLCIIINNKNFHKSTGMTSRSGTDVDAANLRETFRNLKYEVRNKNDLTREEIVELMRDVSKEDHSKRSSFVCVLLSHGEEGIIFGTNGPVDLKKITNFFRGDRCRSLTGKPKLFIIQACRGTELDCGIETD
Chain of Caspase-3 (Homo sapiens) (P42574 176-277 limits assumed): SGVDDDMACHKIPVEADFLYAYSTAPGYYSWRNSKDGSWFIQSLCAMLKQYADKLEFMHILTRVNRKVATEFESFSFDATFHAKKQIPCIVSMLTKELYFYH
Data set [12] deals with Caspase-8 (Homo sapiens) (UniProt Q14790). The experiment in a line: Peptidase, CASP8 (Caspase 8) Eurofins-Panlabs enzyme assay. The conditions noted are these: Compound concentration 10.0 uM.
Chain of Caspase-8 (Homo sapiens) (Q14790 217-374 limits assumed): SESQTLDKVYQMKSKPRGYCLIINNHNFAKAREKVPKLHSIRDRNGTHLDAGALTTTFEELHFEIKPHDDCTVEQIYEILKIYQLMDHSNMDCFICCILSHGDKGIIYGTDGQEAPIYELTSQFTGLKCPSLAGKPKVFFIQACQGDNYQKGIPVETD
Chain of Caspase-8 (Homo sapiens) (Q14790 385-479 limits assumed): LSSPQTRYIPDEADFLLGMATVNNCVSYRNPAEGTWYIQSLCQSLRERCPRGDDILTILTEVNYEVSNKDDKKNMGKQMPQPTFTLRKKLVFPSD
The target of data set [13] is Cathepsin G (Homo sapiens) (UniProt P08311). The experiment in a line: Inhibition of Peptidase, CTSG (Cathepsin G) at 10 µM in the Eurofins-Panlabs enzyme assay (Eurofins_assay_112510). Set-up: substrate with concentration. The conditions noted are these: Compound concentration 10.0 uM.
Data set [14] has as its target C-X-C chemokine receptor type 4 (Homo sapiens) (UniProt P61073). Description: Chemokine CXCR4 Eurofins-Panlabs radioligand binding assay. Set-up: ligand concentration 0.03 nM. The conditions noted are these: Compound concentration 10.0 uM.
The species entered for data set [15] is Rattus norvegicus. The experiment in a line: Glutamate, NMDA, Polyamine Eurofins-Panlabs radioligand binding assay. Format: protein-complex assay. Set-up: ligand concentration 2 nM. The conditions noted are these: Compound concentration 10.0 uM.
Data set [16] addresses Neurotensin receptor type 1 (Homo sapiens) (UniProt P30989). The experiment in a line: Neurotensin NT1 Eurofins-Panlabs radioligand binding assay. The note with it: Compound concentration 10.0 uM. Set-up: ligand concentration 0.02 nM, non-specific ligand with concentration 1 µM Neurotensin, incubation time 45 min, incubation temperature 25 °C.
Data set [17] has as its target Peroxisome proliferator-activated receptor alpha (Homo sapiens) (UniProt Q07869). The experiment in a line: PPARalpha Eurofins-Panlabs radioligand binding assay. The note with it: Compound concentration 10.0 uM.
The target in data set [18] is Progesterone receptor (Homo sapiens) (UniProt P06401). The experiment in a line: Inhibition of Progesterone PR-B at 10 µM in the Eurofins-Panlabs radioligand binding assay (Eurofins_assay_268020). On the set-up: ligand concentration 1.4 nM. The note with it: Compound concentration 10.0 uM.
Data set [19] has as its target Glutamate NMDA receptor; GRIN1/GRIN2A (Homo sapiens) (UniProt Q05586+Q12879). The experiment in a line: NMDA-NR1a/NR2a Eurofins-Panlabs radioligand binding assay. The note with it: Compound concentration 10.0 uM. The format is protein-complex assay.
The species named for data set [20] is Homo sapiens. The experiment in a line: Prostanoid, Thromboxane A2 (TP) Eurofins-Panlabs radioligand binding assay. On the set-up: ligand concentration 5 nM, non-specific ligand with concentration 1 µM SQ-29548, incubation time 30 min, incubation temperature 25 °C. The note with it: Compound concentration 10.0 uM.
The target in data set [21] is Rod cGMP-specific 3',5'-cyclic phosphodiesterase subunit alpha (Homo sapiens, UniProt P16499). The experiment in a line: Biochemical assay (PDE6A).
The target in data set [22] is Sodium-dependent noradrenaline transporter (Homo sapiens) (UniProt P23975). The conditions noted are these: Compound concentration 10.0 uM.
Chain of Sodium-dependent noradrenaline transporter (Homo sapiens) (P23975 whole entry): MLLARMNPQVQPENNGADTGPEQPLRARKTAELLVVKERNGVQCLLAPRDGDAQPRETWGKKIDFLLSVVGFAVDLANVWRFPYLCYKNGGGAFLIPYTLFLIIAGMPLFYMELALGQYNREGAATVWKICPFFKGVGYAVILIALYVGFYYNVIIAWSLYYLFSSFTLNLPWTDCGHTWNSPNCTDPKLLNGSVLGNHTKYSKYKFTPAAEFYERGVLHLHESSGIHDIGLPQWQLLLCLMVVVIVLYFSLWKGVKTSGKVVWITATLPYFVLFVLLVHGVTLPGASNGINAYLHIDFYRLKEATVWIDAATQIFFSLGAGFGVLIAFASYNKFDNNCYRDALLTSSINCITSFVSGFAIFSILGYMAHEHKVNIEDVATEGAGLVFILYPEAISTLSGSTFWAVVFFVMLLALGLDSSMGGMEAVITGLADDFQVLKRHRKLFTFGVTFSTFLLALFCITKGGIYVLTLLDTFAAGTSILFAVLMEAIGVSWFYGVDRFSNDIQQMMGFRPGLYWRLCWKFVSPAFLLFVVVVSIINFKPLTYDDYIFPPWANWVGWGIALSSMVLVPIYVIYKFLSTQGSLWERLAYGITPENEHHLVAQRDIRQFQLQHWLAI
The target of data set [23] is Adenosine receptor A2a (Homo sapiens) (UniProt P29274). The note with it: Compound concentration 10.0 uM.
The target in data set [24] is Beta-2 adrenergic receptor (Homo sapiens) (UniProt P07550). The conditions noted are these: Compound concentration 10.0 uM.
Chain of Beta-2 adrenergic receptor (Homo sapiens) (P07550 whole entry, looked up): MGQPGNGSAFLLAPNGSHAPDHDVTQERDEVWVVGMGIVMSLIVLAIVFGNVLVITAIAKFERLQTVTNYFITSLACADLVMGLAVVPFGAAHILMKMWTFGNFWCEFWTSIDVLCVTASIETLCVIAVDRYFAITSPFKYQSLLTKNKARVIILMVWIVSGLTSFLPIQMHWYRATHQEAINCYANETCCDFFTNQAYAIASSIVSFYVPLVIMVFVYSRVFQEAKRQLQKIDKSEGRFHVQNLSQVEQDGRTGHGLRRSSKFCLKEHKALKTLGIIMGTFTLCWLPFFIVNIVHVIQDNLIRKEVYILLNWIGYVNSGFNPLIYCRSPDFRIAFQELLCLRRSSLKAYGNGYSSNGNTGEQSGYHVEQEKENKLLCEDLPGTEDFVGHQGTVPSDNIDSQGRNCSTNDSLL
Data set [25] concerns the target D(1A) dopamine receptor (Homo sapiens) (UniProt P21728). The conditions noted are these: Compound concentration 10.0 uM.
Data set [26] has as its target Endothelin-1 receptor (Homo sapiens) (UniProt P25101). The note with it: Compound concentration 10.0 uM.
In data set [27] the target is Estrogen receptor (Homo sapiens) (UniProt P03372). The conditions noted are these: Compound concentration 10.0 uM.
Chain of Estrogen receptor (Homo sapiens) (P03372 whole entry): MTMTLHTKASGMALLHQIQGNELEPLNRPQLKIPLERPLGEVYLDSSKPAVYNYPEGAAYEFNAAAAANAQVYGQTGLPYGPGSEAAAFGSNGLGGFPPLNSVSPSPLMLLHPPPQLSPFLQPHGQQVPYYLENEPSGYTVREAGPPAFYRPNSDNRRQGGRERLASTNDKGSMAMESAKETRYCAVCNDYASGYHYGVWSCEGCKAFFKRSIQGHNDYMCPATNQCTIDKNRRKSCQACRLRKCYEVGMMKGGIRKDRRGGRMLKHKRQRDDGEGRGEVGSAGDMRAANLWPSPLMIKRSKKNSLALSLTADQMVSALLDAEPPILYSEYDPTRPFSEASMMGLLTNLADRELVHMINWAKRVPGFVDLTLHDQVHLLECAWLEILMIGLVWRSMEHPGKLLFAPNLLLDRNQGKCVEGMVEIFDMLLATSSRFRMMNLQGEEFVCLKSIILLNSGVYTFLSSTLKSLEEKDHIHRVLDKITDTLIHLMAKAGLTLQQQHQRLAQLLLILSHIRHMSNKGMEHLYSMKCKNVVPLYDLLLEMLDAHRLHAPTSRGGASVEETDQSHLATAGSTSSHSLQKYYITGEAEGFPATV
The target of data set [28] is Muscarinic acetylcholine receptor M3 (Homo sapiens) (UniProt P20309). The note with it: Compound concentration 10.0 uM.
The target in data set [29] is T1, Alpha-2B adrenergic receptor (Homo sapiens) (UniProt P18089).
T1 sequence (whole entry): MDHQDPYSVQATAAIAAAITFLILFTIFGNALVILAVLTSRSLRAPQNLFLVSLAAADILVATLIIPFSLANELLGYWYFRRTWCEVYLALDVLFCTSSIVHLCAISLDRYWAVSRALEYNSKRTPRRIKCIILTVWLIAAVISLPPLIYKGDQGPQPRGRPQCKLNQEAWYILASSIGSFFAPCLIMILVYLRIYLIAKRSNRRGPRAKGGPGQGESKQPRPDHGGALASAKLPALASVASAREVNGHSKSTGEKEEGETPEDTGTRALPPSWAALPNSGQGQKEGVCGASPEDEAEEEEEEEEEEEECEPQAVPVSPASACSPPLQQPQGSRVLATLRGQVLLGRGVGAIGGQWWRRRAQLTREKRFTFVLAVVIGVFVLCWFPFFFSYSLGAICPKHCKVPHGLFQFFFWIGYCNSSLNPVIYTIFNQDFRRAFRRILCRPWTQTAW
The note with it: Compound concentration 10.0 uM.

The target of data set [30] is Beta-3 adrenergic receptor (Homo sapiens) (UniProt P13945). The note with it: Compound concentration 10.0 uM.
Data set [31] has as its target Vasopressin V1a receptor (Homo sapiens) (UniProt P37288). The conditions noted are these: Compound concentration 10.0 uM.
The target in data set [32] is Cannabinoid receptor 2 (Homo sapiens) (UniProt P34972). The conditions noted are these: Compound concentration 10.0 uM.
Chain of Cannabinoid receptor 2 (Homo sapiens) (P34972 whole entry): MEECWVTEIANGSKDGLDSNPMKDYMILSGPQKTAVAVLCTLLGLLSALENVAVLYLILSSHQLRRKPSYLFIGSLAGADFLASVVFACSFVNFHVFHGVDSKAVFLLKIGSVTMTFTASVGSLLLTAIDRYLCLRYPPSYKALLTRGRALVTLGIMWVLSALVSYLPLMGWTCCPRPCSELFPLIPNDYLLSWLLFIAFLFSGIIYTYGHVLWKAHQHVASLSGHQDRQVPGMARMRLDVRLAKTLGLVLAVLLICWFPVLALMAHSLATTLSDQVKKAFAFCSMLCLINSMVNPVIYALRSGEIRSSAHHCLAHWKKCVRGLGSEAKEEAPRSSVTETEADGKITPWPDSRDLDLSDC
Data set [33] concerns the target 5-hydroxytryptamine receptor 7 (Homo sapiens, UniProt P34969). Description: GPCRScan assay: inhibition of 5-HT7A. On the set-up: radioligand conc. used [nm] 5.0 – 6.0, parental cells Stable HEK.
For data set [34], the target named is Citron Rho-interacting kinase (Homo sapiens) (UniProt O14578). The conditions noted are these: Compound concentration 100.0 nM.
The target in data set [35] is 5-hydroxytryptamine receptor 3A (Homo sapiens) (UniProt P46098). The note with it: Compound concentration 10.0 uM.

Chain of 5-hydroxytryptamine receptor 7 (P34969 whole entry): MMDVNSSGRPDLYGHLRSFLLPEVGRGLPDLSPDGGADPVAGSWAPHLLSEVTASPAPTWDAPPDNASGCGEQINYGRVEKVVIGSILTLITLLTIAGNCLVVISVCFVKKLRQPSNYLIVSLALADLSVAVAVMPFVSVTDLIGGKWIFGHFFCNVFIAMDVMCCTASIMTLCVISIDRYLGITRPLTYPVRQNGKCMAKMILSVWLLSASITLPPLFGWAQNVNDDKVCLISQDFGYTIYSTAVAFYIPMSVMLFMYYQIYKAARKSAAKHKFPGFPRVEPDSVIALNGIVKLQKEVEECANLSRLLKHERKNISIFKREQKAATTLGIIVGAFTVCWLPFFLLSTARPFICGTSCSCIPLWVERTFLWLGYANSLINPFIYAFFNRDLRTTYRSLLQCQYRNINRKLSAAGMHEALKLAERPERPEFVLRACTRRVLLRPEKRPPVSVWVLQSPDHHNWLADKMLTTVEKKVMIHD
Chain of Peroxisome proliferator-activated receptor alpha (Homo sapiens) (Q07869 whole entry): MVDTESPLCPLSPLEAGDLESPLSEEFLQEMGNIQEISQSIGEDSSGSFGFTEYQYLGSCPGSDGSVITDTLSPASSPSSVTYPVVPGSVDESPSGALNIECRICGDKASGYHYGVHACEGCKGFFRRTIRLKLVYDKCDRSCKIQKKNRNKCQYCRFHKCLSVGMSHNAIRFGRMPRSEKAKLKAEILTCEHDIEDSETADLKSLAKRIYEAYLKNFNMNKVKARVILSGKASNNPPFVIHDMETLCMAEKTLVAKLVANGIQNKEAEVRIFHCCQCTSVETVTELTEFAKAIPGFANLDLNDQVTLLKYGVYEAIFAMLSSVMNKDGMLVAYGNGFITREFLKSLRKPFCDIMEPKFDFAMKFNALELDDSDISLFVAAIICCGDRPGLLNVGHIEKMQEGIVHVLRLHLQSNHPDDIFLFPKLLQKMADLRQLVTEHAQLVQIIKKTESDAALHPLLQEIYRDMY

In general, inhibition refers to the drop in the measured response relative to a control, in per cent. The term Ki denotes the equilibrium dissociation constant of an inhibitor or competing ligand from its target. On to `COCCOc1nc(-c2ccc(Cl)nc2)nc2c1CN(C(=O)c1ncn3ccccc13)CC2` [THPP-1], for which the inhibition in [1] is -6%; in [2] it was 9%; in data set [3], -10%; in [4], 45%; in data set [5], 5%; in data set [6], 8%. The inhibition is -8% in data set [7]; 5% in data set [8]; -1% in [9]; -1% in data set [11]; -3% in [12]; 17% in data set [13]. In addition, the inhibition in data set [14] is 4%; in [15], 11%; in data set [16], 10%; in data set [17] it was 4%; in data set [18] it was 12%; in [19], -7%. Besides, the inhibition in [20] is 8%; in data set [22], -6.81%; in data set [23], 17%; in [24] it was -4%; in [25], 6%; in data set [26] it was 1%. In addition, the inhibition in [27] was -1%; in data set [28] it was -6%; in data set [29] it was 1%; in [30] it was 1%; in data set [31] it was 1%; in data set [32], 28%. Besides, in data set [10], the inhibition at 60 min, 10 µM is 32% (not active). For the same compound, the Ki in data set [21] is 44 nM.

What is called residual activity is the signal under treatment as a percentage of the control signal. In the case of `CC(C)CC(=O)N1CCc2nc(-c3ccc(Br)cc3)nc(N(C)Cc3ccccc3)c2C1` [THPP-1-NC], the inhibition constant (Ki) in data set [33] worked out at 578 nM. Further, in data set [34], the residual activity was 100%. In data set [35], the inhibition is -4.38%.

For the origin of these results see ChEMBL document CHEMBL4507293 (2021).
